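Test compounds were applied to cells in 96-well plates for 48 hours at 5 doses. GI50 is the concentration that inhibits growth by half. TGI denotes the concentration required for complete inhibition of growth.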
Key:
Assay in all cases: NCI-60 cell line screen, 48 h
786-0 renal = tested on: 786-0 renal
A498 renal = tested on: A498 renal
A549 NSCLC = tested on: A549 NSCLC
ACHN renal = tested on: ACHN renal
BT-549 breast = tested on: BT-549 breast
CAKI-1 renal = tested on: CAKI-1 renal
CCRF-CEM leukemia = tested on: CCRF-CEM leukemia
COLO 205 colon = tested on: COLO 205 colon
DU-145 prostate = tested on: DU-145 prostate
EKVX NSCLC = tested on: EKVX NSCLC
HCC-2998 colon = tested on: HCC-2998 colon
HCT-116 colon = tested on: HCT-116 colon
HCT-15 colon = tested on: HCT-15 colon
HOP-62 NSCLC = tested on: HOP-62 NSCLC
HOP-92 NSCLC = tested on: HOP-92 NSCLC
HS 578T breast = tested on: HS 578T breast
HT29 colon = tested on: HT29 colon
IGROV1 ovarian = tested on: IGROV1 ovarian
K-562 leukemia = tested on: K-562 leukemia
KM12 colon = tested on: KM12 colon
LOX IMVI melanoma = tested on: LOX IMVI melanoma
M14 melanoma = tested on: M14 melanoma
MCF7 breast = tested on: MCF7 breast
MDA-MB-231 breast = tested on: MDA-MB-231 breast
MDA-MB-435 = tested on: MDA-MB-435
MOLT-4 leukemia = tested on: MOLT-4 leukemia
NCI-H23 lung = tested on: NCI-H23 lung
NCI-H522 lung = tested on: NCI-H522 lung
NCI/ADR-RES ovarian = tested on: NCI/ADR-RES ovarian
OVCAR-3 ovarian = tested on: OVCAR-3 ovarian
OVCAR-4 ovarian = tested on: OVCAR-4 ovarian
OVCAR-5 ovarian = tested on: OVCAR-5 ovarian
OVCAR-8 ovarian = tested on: OVCAR-8 ovarian
PC-3 prostate = tested on: PC-3 prostate
RPMI-8226 leukemia = tested on: RPMI-8226 leukemia
RXF 393 renal = tested on: RXF 393 renal
SF-268 CNS = tested on: SF-268 CNS
SF-295 CNS = tested on: SF-295 CNS
SF-539 CNS = tested on: SF-539 CNS
SK-MEL-2 melanoma = tested on: SK-MEL-2 melanoma
SK-MEL-28 melanoma = tested on: SK-MEL-28 melanoma
SK-MEL-5 melanoma = tested on: SK-MEL-5 melanoma
SK-OV-3 ovarian = tested on: SK-OV-3 ovarian
SN12C renal = tested on: SN12C renal
SNB-19 CNS = tested on: SNB-19 CNS
SNB-75 CNS = tested on: SNB-75 CNS
SR leukemia = tested on: SR leukemia
SW-620 colon = tested on: SW-620 colon
T-47D breast = tested on: T-47D breast
TK-10 renal = tested on: TK-10 renal
U251 CNS = tested on: U251 CNS
UACC-257 melanoma = tested on: UACC-257 melanoma
UACC-62 melanoma = tested on: UACC-62 melanoma
UO-31 renal = tested on: UO-31 renal
HL-60(TB) leukemia = tested on: HL-60(TB) leukemia
NCI-H226 lung = tested on: NCI-H226 lung
NCI-H460 lung = tested on: NCI-H460 lung

Question: O=c1nc(Oc2c(F)c(F)c(F)c(F)c2F)ccn1C1OC(CO)C(O)C1O (configuration not stated) was tested. Which TGI (786-0 renal) did it give?
Answer: > 100 µM

Question: And the TGI (A498 renal)?
Answer: > 100 µM

Question: And the TGI (A549 NSCLC)?
Answer: > 100 µM

Question: And the TGI (ACHN renal)?
Answer: > 100 µM

Question: And the TGI (BT-549 breast)?
Answer: > 100 µM

Question: What about the TGI (CAKI-1 renal) of the same compound?
Answer: > 100 µM

Question: What about the TGI (CCRF-CEM leukemia) of the same compound?
Answer: > 100 µM

Question: What about the TGI (COLO 205 colon) of the same compound?
Answer: > 100 µM

Question: What about the TGI (DU-145 prostate) of the same compound?
Answer: > 100 µM

Question: What about the TGI (EKVX NSCLC) of the same compound?
Answer: > 100 µM

Question: And the TGI (HCC-2998 colon)?
Answer: > 100 µM

Question: What about the TGI (HCT-116 colon) of the same compound?
Answer: > 100 µM

Question: And the TGI (HCT-15 colon)?
Answer: > 100 µM

Question: And the TGI (HOP-62 NSCLC)?
Answer: > 100 µM

Question: What about the TGI (HOP-92 NSCLC) of the same compound?
Answer: > 100 µM

Question: What about the TGI (HS 578T breast) of the same compound?
Answer: > 100 µM

Question: And the TGI (HT29 colon)?
Answer: > 100 µM

Question: And the TGI (IGROV1 ovarian)?
Answer: > 100 µM

Question: What about the TGI (K-562 leukemia) of the same compound?
Answer: > 100 µM

Question: And the TGI (KM12 colon)?
Answer: > 100 µM

Question: What about the TGI (LOX IMVI melanoma) of the same compound?
Answer: > 100 µM

Question: What about the TGI (M14 melanoma) of the same compound?
Answer: > 100 µM

Question: What about the TGI (MCF7 breast) of the same compound?
Answer: > 100 µM

Question: What about the TGI (MDA-MB-231 breast) of the same compound?
Answer: > 100 µM

Question: What about the TGI (MDA-MB-435) of the same compound?
Answer: > 100000 nM

Question: And the TGI (MOLT-4 leukemia)?
Answer: > 100 µM

Question: And the TGI (NCI-H23 lung)?
Answer: > 100 µM

Question: And the TGI (NCI-H522 lung)?
Answer: > 100 µM

Question: What about the TGI (NCI/ADR-RES ovarian) of the same compound?
Answer: > 100 µM

Question: What about the TGI (OVCAR-3 ovarian) of the same compound?
Answer: > 100 µM

Question: What about the TGI (OVCAR-4 ovarian) of the same compound?
Answer: > 100 µM

Question: What about the TGI (OVCAR-5 ovarian) of the same compound?
Answer: > 100 µM

Question: What about the TGI (OVCAR-8 ovarian) of the same compound?
Answer: > 100 µM

Question: And the TGI (PC-3 prostate)?
Answer: > 100 µM

Question: And the TGI (RPMI-8226 leukemia)?
Answer: > 100 µM

Question: What about the TGI (RXF 393 renal) of the same compound?
Answer: > 100 µM

Question: What about the TGI (SF-268 CNS) of the same compound?
Answer: > 100 µM

Question: What about the TGI (SF-295 CNS) of the same compound?
Answer: > 100 µM

Question: And the TGI (SF-539 CNS)?
Answer: > 100 µM

Question: And the TGI (SK-MEL-2 melanoma)?
Answer: > 100 µM

Question: And the TGI (SK-MEL-28 melanoma)?
Answer: > 100 µM

Question: And the TGI (SK-MEL-5 melanoma)?
Answer: > 100 µM

Question: What about the TGI (SK-OV-3 ovarian) of the same compound?
Answer: > 100 µM

Question: What about the TGI (SN12C renal) of the same compound?
Answer: > 100 µM

Question: And the TGI (SNB-19 CNS)?
Answer: > 100 µM

Question: And the TGI (SNB-75 CNS)?
Answer: > 100 µM

Question: And the TGI (SR leukemia)?
Answer: > 100 µM

Question: And the TGI (SW-620 colon)?
Answer: > 100 µM

Question: And the TGI (T-47D breast)?
Answer: > 100 µM

Question: What about the TGI (TK-10 renal) of the same compound?
Answer: > 100 µM

Question: What about the TGI (U251 CNS) of the same compound?
Answer: > 100 µM

Question: What about the TGI (UACC-257 melanoma) of the same compound?
Answer: > 100 µM

Question: And the TGI (UACC-62 melanoma)?
Answer: > 100 µM

Question: And the TGI (UO-31 renal)?
Answer: > 100 µM

Question: What does the source list for Cc1cccc(NC(=O)c2sc3nc4c(cc3c2N)CCCC4)c1?
Answer: GI50 (786-0 renal): 4.13 µM; TGI (786-0 renal): 32.4 µM; GI50 (A498 renal): 5.87 µM; TGI (A498 renal): 66.4 µM; GI50 (A549 NSCLC): 8.33 µM; TGI (A549 NSCLC): > 100 µM; GI50 (ACHN renal): 10.5 µM; TGI (ACHN renal): > 100 µM; GI50 (BT-549 breast): 7.56 µM; TGI (BT-549 breast): 62 µM; GI50 (CAKI-1 renal): 6.7 µM; TGI (CAKI-1 renal): > 100 µM; GI50 (CCRF-CEM leukemia): 4.46 µM; TGI (CCRF-CEM leukemia): > 100 µM; GI50 (COLO 205 colon): 4.96 µM; TGI (COLO 205 colon): > 100 µM; GI50 (DU-145 prostate): 13.4 µM; TGI (DU-145 prostate): > 100 µM; GI50 (HCC-2998 colon): 45.4 µM; TGI (HCC-2998 colon): > 100 µM; GI50 (HCT-116 colon): 2590 nM; TGI (HCT-116 colon): > 100 µM; GI50 (HCT-15 colon): 845 nM; TGI (HCT-15 colon): > 100 µM; GI50 (HL-60(TB) leukemia): 2360 nM; TGI (HL-60(TB) leukemia): 17.7 µM; GI50 (HOP-62 NSCLC): 4.97 µM; TGI (HOP-62 NSCLC): 36.8 µM; GI50 (HOP-92 NSCLC): 9 µM; TGI (HOP-92 NSCLC): 32 µM; GI50 (HS 578T breast): 9.92 µM; TGI (HS 578T breast): > 100 µM; GI50 (IGROV1 ovarian): 17.7 µM; TGI (IGROV1 ovarian): > 100 µM; GI50 (KM12 colon): 3.32 µM; TGI (KM12 colon): > 100 µM; GI50 (LOX IMVI melanoma): 8.52 µM; TGI (LOX IMVI melanoma): > 100 µM; GI50 (M14 melanoma): 2000 nM; TGI (M14 melanoma): > 100 µM; GI50 (MCF7 breast): 1150 nM; TGI (MCF7 breast): > 100 µM; GI50 (MDA-MB-231 breast): 14.8 µM; TGI (MDA-MB-231 breast): 52.2 µM; GI50 (MDA-MB-435): 305 nM; TGI (MDA-MB-435): 2000 nM; GI50 (MOLT-4 leukemia): 12 µM; TGI (MOLT-4 leukemia): > 100 µM; GI50 (NCI-H226 lung): 9.68 µM; TGI (NCI-H226 lung): 73.5 µM; GI50 (NCI-H23 lung): 27.8 µM; TGI (NCI-H23 lung): > 100 µM; GI50 (NCI-H460 lung): 5.25 µM; TGI (NCI-H460 lung): > 100 µM; GI50 (NCI-H522 lung): 16.4 µM; TGI (NCI-H522 lung): > 100 µM; GI50 (NCI/ADR-RES ovarian): 4.59 µM; TGI (NCI/ADR-RES ovarian): > 100 µM; GI50 (OVCAR-3 ovarian): 4.84 µM; TGI (OVCAR-3 ovarian): > 100 µM; GI50 (OVCAR-4 ovarian): 3.22 µM; TGI (OVCAR-4 ovarian): 39.1 µM; GI50 (OVCAR-5 ovarian): > 100 µM; TGI (OVCAR-5 ovarian): > 100 µM; GI50 (OVCAR-8 ovarian): 20.9 µM; TGI (OVCAR-8 ovarian): > 100 µM; GI50 (PC-3 prostate): 16.2 µM; TGI (PC-3 prostate): > 100 µM; GI50 (RPMI-8226 leukemia): 5.74 µM; TGI (RPMI-8226 leukemia): > 100 µM; GI50 (RXF 393 renal): 4.71 µM; TGI (RXF 393 renal): 23.2 µM; GI50 (SF-268 CNS): 10.7 µM; TGI (SF-268 CNS): > 100 µM; GI50 (SF-295 CNS): 3.51 µM; TGI (SF-295 CNS): 23.8 µM; GI50 (SF-539 CNS): 4.74 µM; TGI (SF-539 CNS): 60.5 µM; GI50 (SK-MEL-2 melanoma): 8.99 µM; TGI (SK-MEL-2 melanoma): 52.5 µM; GI50 (SK-MEL-28 melanoma): 9.23 µM; TGI (SK-MEL-28 melanoma): > 100 µM; GI50 (SK-MEL-5 melanoma): 2300 nM; TGI (SK-MEL-5 melanoma): 47.3 µM; GI50 (SK-OV-3 ovarian): 12.9 µM; TGI (SK-OV-3 ovarian): 63.9 µM; GI50 (SN12C renal): 24 µM; TGI (SN12C renal): > 100 µM; GI50 (SNB-19 CNS): 6.92 µM; TGI (SNB-19 CNS): 68 µM; GI50 (SNB-75 CNS): 3.84 µM; TGI (SNB-75 CNS): 18.9 µM; GI50 (SR leukemia): 549 nM; TGI (SR leukemia): 11.2 µM; GI50 (SW-620 colon): 3.42 µM; TGI (SW-620 colon): > 100 µM; GI50 (T-47D breast): 10.2 µM; TGI (T-47D breast): > 100 µM; GI50 (TK-10 renal): 13.7 µM; TGI (TK-10 renal): 90.6 µM; GI50 (U251 CNS): 8.33 µM; TGI (U251 CNS): 45.2 µM; GI50 (UACC-257 melanoma): > 100 µM; TGI (UACC-257 melanoma): > 100 µM; GI50 (UACC-62 melanoma): 2190 nM; TGI (UACC-62 melanoma): > 100 µM; GI50 (UO-31 renal): 25.2 µM; TGI (UO-31 renal): > 100 µM
